Legend:
Type in all cases: in vivo
Cyperus difformis = assay: Test Example 3: herbicidal effect by application to foliage (Wagner pot, water depth 0.1-0.5 cm); conditions: Nineteenth Table; application to foliage; application herbicide amount 320 g/ha
How it was run: (§1)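 Foliar spray, 14-day-old plants, emulsion diluted to target g/ha; rated 3 wk post-application, 0–5 scale (0 ≤5%, 5 ≥90% herbicidal ratio). Greenhouse 25–30 °C, alluvial soil.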

[1] = tested on: Echinochloa crus-galli var. crus-galli; assay: as above; conditions: Nineteenth Table; application to foliage; application herbicide amount 320 g/ha
How it was run: as §1

Leptochloa chinensis = assay: as above; conditions: Nineteenth Table; application to foliage; application herbicide amount 320 g/ha
How it was run: as §1

[2] = tested on: directly sowed Oryza sativa; assay: Test Example 3: effect on crop by application to foliage (Wagner pot, water depth 0.1-0.5 cm); conditions: Nineteenth Table; application to foliage; application herbicide amount 320 g/ha
How it was run: as §1

Abutilon theophrasti = assay: Test Example 4: herbicidal effect by application to foliage (diluvial soil, plastic box); conditions: for M (Abutilon theophrasti) herbicidal effect grade: Application herbicide amount 320 g/ha, foliage application
Source text: (§2) 5 Herbicidal ratio of 90% or more (almost completely withered) 4 Herbicidal ratio of 70% or more and less than 90% 3 Herbicidal ratio of 40% or more and less than 70% 2 Herbicidal ratio of 20% or more and less than 40% 1 Herbicidal ratio of 5% or more and less than 20% 0 Herbicidal ratio of 5% or less (almost no effect) [Test Example 4] Herbicidal Effect Test by Application to Foliage Sterilized diluvial soil was placed in a plastic box having a length of 21 cm, a width of 13 cm, and a depth of 7 cm. Each of the seeds of Digitaria ciliaris, Setaria viridis, Echinochloa crus-galli var. crus-galli, Avena fatua, Alopecurus myosuroides, Lolium multiflorum Lam., Apera spica-venti., Abutilon theophrasti, Amaranthus retroflexus, Chenopodium album, Stellaria media, Galium spurium, Veronica persica, Zea mays, Glycine max, Oryza sativa, Triticum aestivum, Beta vulgaris ssp. vulgaris, and Brassica campestris L. was sowed in a spot-like manner and was covered with the soil of about 1.5 cm thick. Thereafter, the plants were grown in the greenhouse of 25° C. to 30° C. After the plants were grown for 14 days, the emulsion agent containing the compound of the present invention prepared in accordance with Formulation Example 2 was diluted with water so as to be a predetermined herbicide amount and the diluted compound was uniformly applied to a stem and leaf part with a small-size spray. Three weeks after the herbicide application, effects on each plant were investigated in accordance with the criteria of Test Example 1. A: Echinochloa oryzicola Vasing., B: Scirpus juncoides, C: Monochoria vaginalis, D: Leptochloa chinensis, E: Cyperus difformis, F: Digitaria ciliaris, G: Setaria viridis, H: Echinochloa crus-galli var. crus-galli, I: Avena fatua, J: Alopecurus myosuroides, K: Lolium multiflorum Lam., L: Apera spica-venti., M: Abutilon theophrasti, N: Amaranthus retroflexus, O: Chenopodium album, P: Stellaria media, Q: Galium spurium, R: Veronica persica, a: transplanted Oryza sativa, b: directly sowed Oryza sativa, c: Zea mays, d: Glycine max, e: Triticum aestivum, f: Beta vulgaris ssp. vulgaris, and g: Brassica campestris L. The application herbicide amount (g/ha) means an amount that a concentration is adjusted so that, when an application amount is converted into per hectare (1 ha), the herbicide is applied by the number of grams (g) of the described value.

Alopecurus myosuroides = assay: as above; conditions: for J (Alopecurus myosuroides) herbicidal effect grade: Application herbicide amount 320 g/ha, foliage application
Source text: as §2

Amaranthus retroflexus = assay: as above; conditions: for N (Amaranthus retroflexus) herbicidal effect grade: Application herbicide amount 320 g/ha, foliage application
Source text: as §2

Apera spica-venti. = assay: as above; conditions: for L (Apera spica-venti.) herbicidal effect grade: Application herbicide amount 320 g/ha, foliage application
Source text: as §2

Avena fatua = assay: as above; conditions: for I (Avena fatua) herbicidal effect grade: Application herbicide amount 320 g/ha, foliage application
Source text: as §2

Chenopodium album = assay: as above; conditions: for O (Chenopodium album) herbicidal effect grade: Application herbicide amount 320 g/ha, foliage application
Source text: as §2

Digitaria ciliaris = assay: as above; conditions: for F (Digitaria ciliaris) herbicidal effect grade: Application herbicide amount 320 g/ha, foliage application
Source text: as §2

[3] = tested on: Echinochloa crus-galli var. crus-galli; assay: as above; conditions: for H (Echinochloa crus-galli var. crus-galli) herbicidal effect grade: Application herbicide amount 320 g/ha, foliage application
Source text: as §2

Galium spurium = assay: as above; conditions: for Q (Galium spurium) herbicidal effect grade: Application herbicide amount 320 g/ha, foliage application
Source text: as §2

Lolium multiflorum Lam. = assay: as above; conditions: for K (Lolium multiflorum Lam.) herbicidal effect grade: Application herbicide amount 320 g/ha, foliage application
Source text: as §2

Setaria viridis = assay: as above; conditions: for G (Setaria viridis) herbicidal effect grade: Application herbicide amount 320 g/ha, foliage application
Source text: as §2

Stellaria media = assay: as above; conditions: for P (Stellaria media) herbicidal effect grade: Application herbicide amount 320 g/ha, foliage application
Source text: as §2

Veronica persica = assay: as above; conditions: for R (Veronica persica) herbicidal effect grade: Application herbicide amount 320 g/ha, foliage application
Source text: as §2

[4] = tested on: Beta vulgaris ssp. vulgaris; assay: Test Example 4: effect on crop by application to foliage (diluvial soil, plastic box); conditions: for f (Beta vulgaris ssp. vulgaris) effect on crop grade: Application herbicide amount 320 g/ha, foliage application
How it was run: (§3)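 Plants were grown in sterilized diluvial soil in a greenhouse at 25-30° C for 14 days, then sprayed on stems and leaves with water-diluted emulsion formulation at set rates in g/ha. Weed control and crop injury were scored 3 weeks after treatment on a 0-5 herbicidal-ratio scale, from 0 (≤5%) to 5 (≥90%).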

Brassica campestris L. = assay: as above; conditions: for g (Brassica campestris L.) effect on crop grade: Application herbicide amount 320 g/ha, foliage application
How it was run: as §3

Glycine max = assay: as above; conditions: for d (Glycine max) effect on crop grade: Application herbicide amount 320 g/ha, foliage application
How it was run: as §3

Triticum aestivum = assay: as above; conditions: for e (Triticum aestivum) effect on crop grade: Application herbicide amount 320 g/ha, foliage application
How it was run: as §3

Zea mays = assay: as above; conditions: for c (Zea mays) effect on crop grade: Application herbicide amount 320 g/ha, foliage application
How it was run: as §3

[5] = tested on: directly sowed Oryza sativa; assay: as above; conditions: application to foliage, 320 g/ha
How it was run: as §3

[6] = application to foliage, 320 g/ha

Compound | E (herbicidal effect grade) (Cyperus difformis) | H (herbicidal effect grade) [1] | D (herbicidal effect grade) (Leptochloa chinensis) | b (effect on crop grade) [2] | M (Abutilon theophrasti) herbicidal effect grade (Abutilon theophrasti) | J (Alopecurus myosuroides) herbicidal effect grade (Alopecurus myosuroides) | N (Amaranthus retroflexus) herbicidal effect grade (Amaranthus retroflexus) | L (Apera spica-venti.) herbicidal effect grade (Apera spica-venti.) | I (Avena fatua) herbicidal effect grade (Avena fatua) | O (Chenopodium album) herbicidal effect grade (Chenopodium album) | F (Digitaria ciliaris) herbicidal effect grade (Digitaria ciliaris) | H (Echinochloa crus-galli var. crus-galli) herbicidal effect grade [3] | Q (Galium spurium) herbicidal effect grade (Galium spurium) | K (Lolium multiflorum Lam.) herbicidal effect grade (Lolium multiflorum Lam.) | G (Setaria viridis) herbicidal effect grade (Setaria viridis) | P (Stellaria media) herbicidal effect grade (Stellaria media) | R (Veronica persica) herbicidal effect grade (Veronica persica) | f (Beta vulgaris ssp. vulgaris) effect on crop grade [4] | g (Brassica campestris L.) effect on crop grade (Brassica campestris L.) | d (Glycine max) effect on crop grade (Glycine max) | other results
COC(=O)CSc1nnc2c(C(=O)Nc3nnc(C)o3)ccc(C(F)(F)F)n12 [1-127] | 3 (Herbicidal ratio of 40% or more and less than 70%) | 4 (Herbicidal ratio of 70% or more and less than 90%) | 4 (Herbicidal ratio of 70% or more and less than 90%) | 0 (Herbicidal ratio of 5% or less (almost no effect)) | 2 (Herbicidal ratio of 20% or more and less than 40%) | 0 (Herbicidal ratio of 5% or less (almost no effect)) | 1 (Herbicidal ratio of 5% or more and less than 20%) | 0 (Herbicidal ratio of 5% or less (almost no effect)) | 0 (Herbicidal ratio of 5% or less (almost no effect)) | 5 (Herbicidal ratio of 90% or more (almost completely withered)) | 1 (Herbicidal ratio of 5% or more and less than 20%) | 4 (Herbicidal ratio of 70% or more and less than 90%) | 0 (Herbicidal ratio of 5% or less (almost no effect)) | 0 (Herbicidal ratio of 5% or less (almost no effect)) | 1 (Herbicidal ratio of 5% or more and less than 20%) | 3 (Herbicidal ratio of 40% or more and less than 70%) | 1 (Herbicidal ratio of 5% or more and less than 20%) | 2 (Herbicidal ratio of 20% or more and less than 40%) | 0 (Herbicidal ratio of 5% or less (almost no effect)) | 1 (Herbicidal ratio of 5% or more and less than 20%) | e (Triticum aestivum) effect on crop grade (Triticum aestivum): 0 (Herbicidal ratio of 5% or less (almost no effect)); c (Zea mays) effect on crop grade (Zea mays): 0 (Herbicidal ratio of 5% or less (almost no effect))
CSCc1nnc(NC(=O)c2ccc(C(F)(F)F)n3c(C(C)C)nnc23)o1 [1-141] | 3 (Herbicidal ratio of 40% or more and less than 70%) | 4 (Herbicidal ratio of 70% or more and less than 90%) | 2 (Herbicidal ratio of 20% or more and less than 40%) | 1 (Herbicidal ratio of 5% or more and less than 20%) | 3 (Herbicidal ratio of 40% or more and less than 70%) | 0 (Herbicidal ratio of 5% or less (almost no effect)) | 3 (Herbicidal ratio of 40% or more and less than 70%) | 0 (Herbicidal ratio of 5% or less (almost no effect)) | 0 (Herbicidal ratio of 5% or less (almost no effect)) | 4 (Herbicidal ratio of 70% or more and less than 90%) | 3 (Herbicidal ratio of 40% or more and less than 70%) | 4 (Herbicidal ratio of 70% or more and less than 90%) | 1 (Herbicidal ratio of 5% or more and less than 20%) | 0 (Herbicidal ratio of 5% or less (almost no effect)) | 1 (Herbicidal ratio of 5% or more and less than 20%) | 3 (Herbicidal ratio of 40% or more and less than 70%) | 3 (Herbicidal ratio of 40% or more and less than 70%) | 4 (Herbicidal ratio of 70% or more and less than 90%) | 4 (Herbicidal ratio of 70% or more and less than 90%) | 1 (Herbicidal ratio of 5% or more and less than 20%) | e (Triticum aestivum) effect on crop grade (Triticum aestivum): 0 (Herbicidal ratio of 5% or less (almost no effect)); c (Zea mays) effect on crop grade (Zea mays): 0 (Herbicidal ratio of 5% or less (almost no effect))
Cc1nonc1NC(=O)c1ccc(C(F)(F)F)n2c(SCC(C)C)nnc12 [3-002] |  | 0 (Herbicidal ratio of 5% or less (almost no effect)) | 3 (Herbicidal ratio of 40% or more and less than 70%) | 0 (Herbicidal ratio of 5% or less (almost no effect)) |  |  |  |  |  |  |  |  |  |  |  |  |  |  |  |  | herbicidal effect, M (Abutilon theophrasti) (Abutilon theophrasti; [6]): 1 (Herbicidal ratio of 5% or more and less than 20%); herbicidal effect, J (Alopecurus myosuroides) (Alopecurus myosuroides; [6]): 0 (Herbicidal ratio of 5% or less (almost no effect)); herbicidal effect, N (Amaranthus retroflexus) (Amaranthus retroflexus; [6]): 3 (Herbicidal ratio of 40% or more and less than 70%); herbicidal effect, L (Apera spica-venti.) (Apera spica-venti.; [6]): 0 (Herbicidal ratio of 5% or less (almost no effect)); herbicidal effect, I (Avena fatua) (Avena fatua; [6]): 0 (Herbicidal ratio of 5% or less (almost no effect)); herbicidal effect, O (Chenopodium album) (Chenopodium album; [6]): 4 (Herbicidal ratio of 70% or more and less than 90%); herbicidal effect, F (Digitaria ciliaris) (Digitaria ciliaris; [6]): 0 (Herbicidal ratio of 5% or less (almost no effect)); herbicidal effect, H (Echinochloa crus-galli var. crus-galli) [3, 6]: 0 (Herbicidal ratio of 5% or less (almost no effect)); herbicidal effect, Q (Galium spurium) (Galium spurium; [6]): 0 (Herbicidal ratio of 5% or less (almost no effect)); herbicidal effect, K (Lolium multiflorum Lam.) (Lolium multiflorum Lam.; [6]): 0 (Herbicidal ratio of 5% or less (almost no effect)); herbicidal effect, G (Setaria viridis) (Setaria viridis; [6]): 0 (Herbicidal ratio of 5% or less (almost no effect)); herbicidal effect, P (Stellaria media) (Stellaria media; [6]): 1 (Herbicidal ratio of 5% or more and less than 20%); herbicidal effect, R (Veronica persica) (Veronica persica; [6]): 0 (Herbicidal ratio of 5% or less (almost no effect)); effect on crop, f (Beta vulgaris ssp. vulgaris) [4, 6]: 0 (Herbicidal ratio of 5% or less (almost no effect)); effect on crop, g (Brassica campestris L.) (Brassica campestris L.; [6]): 0 (Herbicidal ratio of 5% or less (almost no effect)); effect on crop, c (Glycine max) (Glycine max; [6]): 0 (Herbicidal ratio of 5% or less (almost no effect)); effect on crop, e (Triticum aestivum) (Triticum aestivum; [6]): 0 (Herbicidal ratio of 5% or less (almost no effect)); effect on crop, b (Zea mays) (Zea mays; [6]): 0 (Herbicidal ratio of 5% or less (almost no effect)); effect on crop, d (directly sowed Oryza sativa) [5]: 0 (Herbicidal ratio of 5% or less (almost no effect))
